Where two headings read alike, the source gives them in different places.
Tests used:
[1] = system: Leishmania infantum MHOM/MA(BE)/67/ITMAP263 intracellular amastigotes; settings: for IC50: read-out: L. infantum MHOM/MA(BE)/67/ITMAP263 intracellular amastigotes IC50
[2] = system: L. donovani MHOM/ET/67/L82 intracellular amastigotes; settings: read-out: L. donovani MHOM/ET/67/L82 intracellular amastigotes IC50
[3] = system: primary peritoneal mouse macrophages (PMM); settings: for IC50: read-out: PMM IC50; for SI (vs PMM): PMM IC50 / L. infantum IC50
MRC-5SV2 cells = assay: Cytotoxicity assay on MRC-5SV2 cells (resazurin)
in vitro [4] = settings: Swiss, mouse
in vitro [5] = settings: human, microsomes, pH 7.4, HLM CLint, human liver microsomes
[6] = system: Trypanosoma cruzi, Tulahuen CL2, beta-galactosidase strain; assay: microbe, parasite or virus in culture; settings: MRC5, read-out: T. cruzi Tulahuen C4 (LacZ) IC50
physchem = settings: HPLC, Ascentis Express RP Amide column, pH 7.4, eLogD
in vitro [7] = settings: human
[8] = system: Leishmania infantum MHOM/MA(BE)/67/ITMAP263 intracellular amastigotes; assay: microbe, parasite or virus in culture; settings: Macrophage, in Mus musculus
in vitro [9] = settings: mouse, microsomes, pH 7.4, MLM CLint, mouse liver microsomes
[10] = read-out: L. Inf. pIC50, from L. infantum intracellular amastigote IC50 (converted)
[11] = read-out: L. infantum MHOM/MA(BE)/67/ITMAP263 intracellular amastigotes IC50

Compound	IC50 [1]	IC50 [2]	IC50 [3]	CC50 (MRC-5SV2 cells)	IC50 (in vitro [4])	microsomal CLint at 0.5 μM (in vitro [5])	IC50 [6]	chromatographic logD (physchem)	CC50 at 3 days (in vitro [7])	IC50 [8, 10]	IC50 [8, 11]	SI (vs PMM) [3]	microsomal CLint at 0.5 μM (in vitro [9])	L. Inf. pIC50 [1]
CCCCNS(=O)(=O)c1cccc(NC(=O)c2cc(C)c(C)s2)c1 [Compound Z88584860]	> 32 µM	> 32 µM	> 32 µM	> 32 µM	–	–	–	–	–	–	–	–	–	–
COc1ccc(S(=O)(=O)N(C)C)cc1NC(=O)CN1C(=O)COc2ccccc21 [Compound Z29560624]	> 32 µM	> 32 µM	> 32 µM	> 32 µM	–	–	–	–	–	–	–	–	–	–
COC(=O)c1cccc(C(=O)Nc2cccc(S(=O)(=O)N3CCCC3)c2)n1 [Compound Z441654950]	> 32 µM	> 32 µM	> 32 µM	> 32 µM	–	–	–	–	–	–	–	–	–	–
CN(C)S(=O)(=O)c1cccc(NC(=O)CN2CCCc3cc(F)cc(F)c32)c1 [Compound Z369155588]	> 32 µM	> 32 µM	> 32 µM	> 32 µM	–	–	–	–	–	–	–	–	–	–
CCN(Cc1ccc(F)cc1)S(=O)(=O)c1cc(Cl)ccc1OC [DNDI0003366065]	–	–	–	–	> 64 µM	352 µL/min/mg	6.88 µM	4.4	59.5 µM	21.9 µM	22 µM	3	–	–
CCCCNS(=O)(=O)c1cccc(NC(=O)c2ccc(C)c(OC)c2)c1 [Compound Z109591588]	> 32 µM	> 32 µM	> 32 µM	> 32 µM	–	–	–	–	–	–	–	–	–	–
COCCN(Cc1ccccc1)S(=O)(=O)c1ccc(NC(C)=O)cc1 [DNDI0003366100]	–	–	–	–	> 64 µM	424 µL/min/mg	> 64 µM	3.2	> 64 µM	> 64 µM	> 64 µM	1	29 µL/min/mg	–
CC(=O)Nc1ccc(S(=O)(=O)N(CCN(C)C)Cc2ccccc2)cc1 [DNDI0003366091]	–	–	–	–	> 64 µM	95 µL/min/mg	> 64 µM	3	> 64 µM	> 64 µM	> 64 µM	1	42 µL/min/mg	–
COc1ccc(S(=O)(=O)N(C)C)cc1NC(=O)Cn1c(=O)cnc2ccccc21 [Compound Z19025005]	> 32 µM	> 32 µM	> 32 µM	> 32 µM	–	–	–	–	–	–	–	–	–	–
COc1ccc(F)cc1S(=O)(=O)N(Cc1ccccc1)Cc1ccccc1 [DNDI0003366071]	–	–	–	–	> 64 µM	955 µL/min/mg	6.82 µM	–	> 64 µM	1.38 µM	1.37 µM	47	–	–
CCN(Cc1ccccn1)S(=O)(=O)c1cc(OC)ccc1OC [DNDI0003366095]	–	–	–	–	> 64 µM	118 µL/min/mg	> 64 µM	2.7	> 64 µM	43.7 µM	44.1 µM	1	2190 µL/min/mg	–
CCC(Cc1ccccc1)S(=O)(=O)c1nc(C)cc(C)c1C#N (centres unmarked) [DNDI0003297459]	–	–	–	–	> 64 µM	–	45.2 µM	–	> 64 µM	20.4 µM	20.2 µM	3	–	–
COc1ccccc1S(=O)(=O)N(Cc1ccccc1)Cc1ccccc1 [Compound Z45508946]	0.34 µM	1.59 µM	> 32 µM	> 32 µM	–	–	–	–	–	–	–	–	–	6.47
CCOC(=O)c1c(C)[nH]c(C(=O)Nc2ccc(Cl)c(S(=O)(=O)N3CCCCC3)c2)c1C [Compound Z30461235]	2.99 µM	3.39 µM	16 µM	2.17 µM	–	–	–	–	–	–	–	–	–	5.52
Fc1cccc(Cl)c1CNc1ccccc1-n1cccn1 [Compound Z739504072]	> 32 µM	> 32 µM	> 32 µM	> 32 µM	–	–	–	–	–	–	–	–	–	–
CCN(Cc1ccccc1)S(=O)(=O)c1cc(F)ccc1OC [DNDI0003366070]	–	–	–	–	> 64 µM	383 µL/min/mg	28.4 µM	3.9	49.6 µM	11 µM	11 µM	6	–	–
CN(C)S(=O)(=O)c1cccc(NC(=O)CNc2cccc3c2CCCC3)c1 [Compound Z30985744]	> 32 µM	> 32 µM	> 32 µM	> 32 µM	–	–	–	–	–	–	–	–	–	–

From publication PMC8126888 (RSC Medicinal Chemistry, 2020)
